# Test results reported in patent US10407422B2, “Triazolopyridine inhibitors of myeloperoxidase” (priority 2015, dated 2019).
# Experiments:
# myeloperoxidase (MPO) [1] = biological target: T1, myeloperoxidase (MPO) (Homo sapiens (Human), UniProt P05164); test: MPO peroxidation assay (Amplex Red assay); assay type: biochemical; details: potency range class
# Protocol: MPO Peroxidation Assay (Amplex Red Assay) MPO peroxidation activity was measured in 100 mM KPi (pH 7.4) by utilizing the non-fluorescent reagent Amplex Red (Invitrogen Cat. #A12222) which can be oxidized to the highly fluorescent resorufin. Amplex Red is oxidized by the peroxidase action of MPO to resorufin. Reactions were carried out in 50 μL total volume by adding a 25 μL mixture of 200 pM myeloperoxidase and 40 nM H2O2(Sigma #349887) to 100 nL inhibitor in 100% DMSO in a 384 well Perkin Elmer Optiplate. Enzyme and compound were preincubated for ten minutes at room temperature. After the ten minute preincubation, 25 μL of an Amplex Red mixture containing 200 μM Amplex Red and 10 mM H2O2 was added to the plate. Kinetic determinations were carried out immediately on a Perkin Elmer Envision (15 minute kinetic read, Ex: 535 nm, Em: 590 nm). IC50 values were calculated by determining the slope of the linear portion of the kinetic trace (180-540 secs), and using that calculated slope to determine % inhibition occurring at each concentration of inhibitor using the following equation: [formula] where A=minimal Y value (activity level of inhibited sample), B=maximal Y value (activity level of uninhibited sample), C=Log IC50, D=Hill Slope, x=concentration of inhibitor. MPO Chlorination Assay (APF Assay)
# myeloperoxidase (MPO) [2] = biological target: T1, myeloperoxidase (MPO); test: MPO chlorination assay (APF assay); assay type: biochemical; details: potency range class
# Protocol: [formula] where A=minimal Y value (activity level of inhibited sample), B=maximal Y value (activity level of uninhibited sample), C=Log IC50, D=Hill Slope, x=concentration of inhibitor. MPO Chlorination Assay (APF Assay) MPO chlorination activity was measured in 100 mM KPi (pH 7.4) by utilizing the non-fluorescent reagent Aminophenyl fluorescein (APF, Invitrogen Cat. #A36003). APF is cleaved by (—OCl) to yield the fluorescent compound fluorescein. Reactions were carried out in 50 μL total volume by adding a 25 μL mixture of 200 pM myeloperoxidase and 120 mM NaCl to 100 nL inhibitor in 100% DMSO in a 384 well, non-binding surface clear bottom plate (Corning #3655). Enzyme, inhibitor, and chloride were preincubated for ten minutes at room temperature. After the ten minute preincubation, 25 μL of an APF mixture containing […], 120 mM NaCl and 10 μM H2O2 was added to the plate using the internal dispensing system of a Hammatsu FDSS 6000. Kinetic determinations were carried out immediately on the FDSS 6000 (3 minute kinetic read, 1 read every second, ex: 485 nm, em: 535 nm). IC50 values for inhibitors were calculated by taking the slope of the linear portion of the kinetic measurement (20 seconds to ˜80-120 secs). IC50 values were calculated by determining the slope of the linear portion of the kinetic trace […], and using that calculated slope to determine % inhibition occurring at each concentration of inhibitor using the following equation: [formula] where A=minimal Y value (activity level of inhibited sample), B=maximal Y value (activity level of uninhibited sample), C=Log IC50, D=Hill Slope, x=concentration of inhibitor. EPX Bromination Assay
# T1 sequence (P05164 49-745): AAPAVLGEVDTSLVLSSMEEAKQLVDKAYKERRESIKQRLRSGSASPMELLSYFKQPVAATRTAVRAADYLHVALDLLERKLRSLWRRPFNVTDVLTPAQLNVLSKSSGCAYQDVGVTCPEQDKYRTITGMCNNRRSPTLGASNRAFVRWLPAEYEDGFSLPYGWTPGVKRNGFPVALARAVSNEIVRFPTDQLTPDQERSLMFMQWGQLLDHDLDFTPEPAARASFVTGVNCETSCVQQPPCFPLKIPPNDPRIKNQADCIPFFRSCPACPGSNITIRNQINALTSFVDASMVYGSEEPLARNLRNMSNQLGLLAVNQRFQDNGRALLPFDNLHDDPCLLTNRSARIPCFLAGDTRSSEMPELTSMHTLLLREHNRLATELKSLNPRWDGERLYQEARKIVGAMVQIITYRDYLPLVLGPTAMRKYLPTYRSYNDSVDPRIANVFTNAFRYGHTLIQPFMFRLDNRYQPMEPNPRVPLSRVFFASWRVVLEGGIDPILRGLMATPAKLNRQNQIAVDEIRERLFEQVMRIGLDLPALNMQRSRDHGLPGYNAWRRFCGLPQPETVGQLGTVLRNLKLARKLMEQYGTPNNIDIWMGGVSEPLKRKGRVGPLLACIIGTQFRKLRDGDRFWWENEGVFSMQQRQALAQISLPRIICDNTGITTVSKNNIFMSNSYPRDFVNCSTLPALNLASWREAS
IC50 (myeloperoxidase (MPO) [1]) [nM],IC50 (myeloperoxidase (MPO) [2]) [nM],Compound
1 to 100,101 to 999,"Nc1cc(Cc2cnn(-c3cccc(F)c3)c2)c2nn[nH]c2n1 [Example 3, 7-((1-(3-Fluorophenyl)-1H-pyrazol-4-yl)methyl)-3H-[1,2,3]triazolo[4,5-b]pyridin-5-amine]"
101 to 999,101 to 999,"Nc1cc(Cc2cnn(-c3ccccc3)n2)c2nn[nH]c2n1 [Example 6, 7-((2-Phenyl-2H-1,2,3-triazol-4-yl)methyl)-3H-[1,2,3]triazolo[4,5-b]pyridin-5-amine]"
101 to 999,,"Nc1cc(Cc2cnn(-c3ccc4ccccc4c3)c2)c2nn[nH]c2n1 [Example 12, 7-((1-(Naphthalen-2-yl)-1H-pyrazol-4-yl)methyl)-3H-[1,2,3]triazolo[4,5-b]pyridin-5-amine]"
1 to 100,,"Cc1ccc(-n2cc(Cc3cc(N)nc4[nH]nnc34)cn2)c2ccccc12 [Example 13, 7-((1-(4-Methylnaphthalen-1-yl)-1H-pyrazol-4-yl)methyl)-3H-[1,2,3]triazolo[4,5-b]pyridin-5-amine]"
1 to 100,,"Nc1cc(Cc2cnn(-c3ccc(F)cn3)c2)c2nn[nH]c2n1 [Example 17, 7-((1-(5-Fluoropyridin-2-yl)-1H-pyrazol-4-yl)methyl)-3H-[1,2,3]triazolo[4,5-b]pyridin-5-amine]"
101 to 999,,"Cc1ccc(-n2cc(Cc3cc(N)nc4[nH]nnc34)cn2)cc1 [Example 26, 7-((1-(4-Methylphenyl)-1H-pyrazol-4-yl)methyl)-3H-[1,2,3]triazolo[4,5-b]pyridin-5-amine]"
101 to 999,,"COc1ccc(-n2cc(Cc3cc(N)nc4[nH]nnc34)cn2)cc1 [Example 27, 7-((1-(4-Methoxyphenyl)-1H-pyrazol-4-yl)methyl)-3H-[1,2,3]triazolo[4,5-b]pyridin-5-amine]"
101 to 999,,"COc1ccccc1-n1cc(Cc2cc(N)nc3[nH]nnc23)cn1 [Example 28, 7-((1-(2-Methoxyphenyl)-1H-pyrazol-4-yl)methyl)-3H-[1,2,3]triazolo[4,5-b]pyridin-5-amine]"
1 to 100,,"Nc1cc(Cc2cnn(-c3cccc(Br)c3)c2)c2nn[nH]c2n1 [Example 29, 7-((1-(3-Bromophenyl)-1H-pyrazol-4-yl)methyl)-3H-[1,2,3]triazolo[4,5-b]pyridin-5-amine]"
1 to 100,,"Nc1cc(Cc2cnn(-c3cccc(OCc4ccccc4)c3)c2)c2nn[nH]c2n1 [Example 37, 7-((1-(3-(Benzyloxy)phenyl)-1H-pyrazol-4-yl)methyl)-3H-[1,2,3]triazolo[4,5-b]pyridin-5-amine]"
101 to 999,,"Nc1cc(Cc2cnc(-c3ccc(F)cc3)s2)c2nn[nH]c2n1 [Example 47, 7-((2-(4-Fluorophenyl)thiazol-5-yl)methyl)-3H-[1,2,3]triazolo[4,5-b]pyridin-5-amine]"
1 to 100,,"Nc1cc(Cc2ccc(-c3ccccc3)s2)c2nn[nH]c2n1 [Example 49, 7-((5-Phenylthiophen-2-yl)methyl)-3H-[1,2,3]triazolo[4,5-b]pyridin-5-amine]"
101 to 999,,"CS(=O)(=O)c1ccc(Cn2cc(Cc3cc(N)nc4[nH]nnc34)cn2)cc1 [Example 58, 7-((1-(4-(Methylsulfonyl)benzyl)-1H-pyrazol-4-yl)methyl)-3H-[1,2,3]triazolo[4,5-b]pyridin-5-amine]"
1 to 100,,"CC(c1ccccc1)n1cc(Cc2cc(N)nc3[nH]nnc23)cn1 (centres unmarked) [Example 63, 7-((1-(1-Phenylethyl)-1H-pyrazol-4-yl)methyl)-3H-[1,2,3]triazolo[4,5-b]pyridin-5-amine]"

# The remaining lines, values behind:
Compound,IC50 (myeloperoxidase (MPO) [1]) [nM],IC50 (myeloperoxidase (MPO) [2]) [nM]
"Nc1cc(Cc2cnn(Cc3cccc(C4CCNC4)c3)c2)c2nn[nH]c2n1 (stereo in doubt) [Example 191, 7-{[1-({3-[(3S)-Pyrrolidin-3-yl]phenyl}yl]methyl}-3H-[1,2,3]triazolo[4,5-b]pyridin-5-amine]",1 to 100,1 to 100
"Cc1c(Cc2cc(N)nc3[nH]nnc23)cnn1-c1ccc(F)cc1 [Example 2, 7-((1-(4-Fluorophenyl)-5-methyl-1H-pyrazol-4-yl)methyl)-3H-triazolo[4,5-b]pyridin-5-amine]",101 to 999,101 to 999
"Nc1cc(Cc2cnn(-c3ccccc3F)c2)c2nn[nH]c2n1 [Example 4, 7-((1-(2-Fluorophenyl)-1H-pyrazol-4-yl)methyl)-3H-[1,2,3]triazolo[4,5-b]pyridin-5-amine]",1 to 100,1 to 100
"Nc1cc(Cc2cnn(-c3cccc(Cl)c3)c2)c2nn[nH]c2n1 [Example 7, 7-((1-(3-Chlorophenyl)-1H-pyrazol-4-yl)methyl)-3H-[1,2,3]triazolo[4,5-b]pyridin-5-amine]",1 to 100,1 to 100
"Nc1cc(Cc2cnn(-c3ccc(Br)cc3)c2)c2nn[nH]c2n1 [Example 8, 7-((1-(4-Bromophenyl)-1H-pyrazol-4-yl)methyl)-3H-[1,2,3]triazolo[4,5-b]pyridin-5-amine]",1 to 100,
"Nc1cc(Cc2cnn(-c3cccc(C4CC4)c3)c2)c2nn[nH]c2n1 [Example 15, 7-((1-(3-Cyclopropylphenyl)-1H-pyrazol-4-yl)methyl)-3H-[1,2,3]triazolo[4,5-b]pyridin-5-amine]",1 to 100,
"Nc1cc(Cc2cnn(-c3cccc4cccnc34)c2)c2nn[nH]c2n1 [Example 16, 7-((1-(Quinolin-8-yl)-1H-pyrazol-4-yl)methyl)-3H-[1,2,3]triazolo[4,5-b]pyridin-5-amine]",101 to 999,
"Nc1cc(Cc2cnn(-c3cncc4ccccc34)c2)c2nn[nH]c2n1 [Example 18, 7-((1-(Isoquinolin-4-yl)-1H-pyrazol-4-yl)methyl)-3H-[1,2,3]triazolo[4,5-b]pyridin-5-amine]",1 to 100,
"Nc1cc(Cc2cnn(-c3cncc(F)c3)c2)c2nn[nH]c2n1 [Example 22, 7-((1-(5-Fluoropyridin-3-yl)-1H-pyrazol-4-yl)methyl)-3H-[1,2,3]triazolo[4,5-b]pyridin-5-amine]",101 to 999,
"COc1cccc(-n2cc(Cc3cc(N)nc4[nH]nnc34)cn2)c1 [Example 23, 7-((1-(3-Methoxyphenyl)-1H-pyrazol-4-yl)methyl)-3H-[1,2,3]triazolo[4,5-b]pyridin-5-amine]",1 to 100,
"Nc1cc(Cc2cnn(-c3cccnc3)c2)c2nn[nH]c2n1 [Example 30, 7-((1-(Pyridin-3-yl)-1H-pyrazol-4-yl)methyl)-3H-[1,2,3]triazolo[4,5-b]pyridin-5-amine]",1 to 100,
"COc1cc(-n2cc(Cc3cc(N)nc4[nH]nnc34)cn2)ccn1 [Example 32, 7-((1-(2-Methoxypyridin-4-yl)-1H-pyrazol-4-yl)methyl)-3H-[1,2,3]triazolo[4,5-b]pyridin-5-amine]",101 to 999,
"COc1ccc2cccc(-n3cc(Cc4cc(N)nc5[nH]nnc45)cn3)c2c1 [Example 35, 7-((1-(7-Methoxynaphthalen-1-yl)-1H-pyrazol-4-yl)methyl)-3H-[1,2,3]triazolo[4,5-b]pyridin-5-amine]",1 to 100,
"Nc1cc(Cc2cnn(-c3ccc(=O)[nH]c3)c2)c2nn[nH]c2n1 [Example 38, 5-(4-((5-Amino-3H-[1,2,3]triazolo[4,5-b]pyridin-7-yl)methyl)-1H-pyrazol-1-yl)pyridin-2(1H)-one]",101 to 999,
"Cc1cc(Cc2cc(N)nc3[nH]nnc23)sc1C [Example 50, 7-((4,5-Dimethylthiophen-2-yl)methyl)-3H-[1,2,3]triazolo[4,5-b]pyridin-5-amine]",101 to 999,
"Nc1cc(Cc2ccc(-c3ccccn3)s2)c2nn[nH]c2n1 [Example 51, 7-((5-(Pyridin-2-yl)thiophen-2-yl)methyl)-3H-[1,2,3]triazolo[4,5-b]pyridin-5-amine]",1 to 100,
"Nc1cc(Cc2ccc(C(F)(F)F)o2)c2nn[nH]c2n1 [Example 70, 7-{[5-(Trifluoromethyl)furan-2-yl]methyl}-3H-[1,2,3]triazolo[4,5-b]pyridin-5-amine]",1000 to 10000,
"NC(=O)c1ccc(Cn2cc(Cc3cc(N)nc4[nH]nnc34)cn2)cc1 [Example 73, 4-((4-((5-Amino-3H-[1,2,3]triazolo[4,5-b]pyridin-7-yl)methyl)-1H-pyrazol-1-yl)methyl)benzamide]",1000 to 10000,
